The NIST ThermoML archive (doi:10.1021/je060339m)

Conditions: Liquid

CCCCCOC(C)=O [pentyl ethanoate]
Conditions	mass density [kg/m3]
343.15 K, 25000 kPa	852.1
343.15 K, 30000 kPa	857.3
343.15 K, 35000 kPa	862.7
348.15 K, 100 kPa	823.2
348.15 K, 1000 kPa	824.6
348.15 K, 2000 kPa	825.7
348.15 K, 2700 kPa	826.5
348.15 K, 3000 kPa	826.9
348.15 K, 5000 kPa	828.8
348.15 K, 10000 kPa	834
348.15 K, 15000 kPa	838.9
348.15 K, 20000 kPa	843.5
348.15 K, 25000 kPa	847.9
348.15 K, 30000 kPa	853.3
348.15 K, 35000 kPa	858.8
353.15 K, 100 kPa	818.7
353.15 K, 1000 kPa	819.9
353.15 K, 2000 kPa	821.1
353.15 K, 2700 kPa	821.9
353.15 K, 3000 kPa	822.3
353.15 K, 5000 kPa	824.4
353.15 K, 10000 kPa	829.8
353.15 K, 15000 kPa	835
353.15 K, 20000 kPa	839.7
353.15 K, 25000 kPa	844.3
353.15 K, 30000 kPa	849.8
353.15 K, 35000 kPa	855.4
358.15 K, 100 kPa	811.3
358.15 K, 1000 kPa	812.2
358.15 K, 2000 kPa	813.4
358.15 K, 2700 kPa	814.1
358.15 K, 3000 kPa	814.5
358.15 K, 5000 kPa	816.9
358.15 K, 10000 kPa	822.5
358.15 K, 15000 kPa	827.7
358.15 K, 20000 kPa	832.5
358.15 K, 25000 kPa	838
358.15 K, 30000 kPa	843.9
358.15 K, 35000 kPa	849.7
363.15 K, 100 kPa	806.3
363.15 K, 1000 kPa	807.4
363.15 K, 2000 kPa	808.7
363.15 K, 2700 kPa	809.6
363.15 K, 3000 kPa	809.9
363.15 K, 5000 kPa	812.4
363.15 K, 10000 kPa	818.1
363.15 K, 15000 kPa	823.4
363.15 K, 20000 kPa	828.3
363.15 K, 25000 kPa	833.9
363.15 K, 30000 kPa	839.9
363.15 K, 35000 kPa	845.6
368.15 K, 100 kPa	801.2
368.15 K, 1000 kPa	802.3
368.15 K, 2000 kPa	803.7
368.15 K, 2700 kPa	804.6
368.15 K, 3000 kPa	805
368.15 K, 5000 kPa	807.5
368.15 K, 10000 kPa	813.4
368.15 K, 15000 kPa	818.8
368.15 K, 20000 kPa	824
368.15 K, 25000 kPa	829.8
368.15 K, 30000 kPa	835.9
368.15 K, 35000 kPa	841.4
373.15 K, 100 kPa	795.5
373.15 K, 1000 kPa	796.4
373.15 K, 2000 kPa	797.7
373.15 K, 2700 kPa	799.5
373.15 K, 3000 kPa	799
373.15 K, 5000 kPa	802.5
373.15 K, 10000 kPa	808.2
373.15 K, 15000 kPa	813.9
373.15 K, 20000 kPa	819.8
373.15 K, 25000 kPa	826.3
373.15 K, 30000 kPa	831.3
378.15 K, 100 kPa	790.4
378.15 K, 1000 kPa	791.6
378.15 K, 2000 kPa	793.1
378.15 K, 2700 kPa	794
378.15 K, 3000 kPa	794.4
378.15 K, 5000 kPa	797.1
378.15 K, 10000 kPa	803.5
383.15 K, 100 kPa	786.8
383.15 K, 1000 kPa	788.1
383.15 K, 2000 kPa	789.6
383.15 K, 2700 kPa	790.7
383.15 K, 3000 kPa	791.1
383.15 K, 5000 kPa	793.9
383.15 K, 10000 kPa	800.5
383.15 K, 15000 kPa	806.6
383.15 K, 20000 kPa	811.7
383.15 K, 25000 kPa	816.5
383.15 K, 30000 kPa	824
383.15 K, 35000 kPa	830
388.15 K, 100 kPa	781.9
388.15 K, 1000 kPa	783.4
388.15 K, 2000 kPa	785
388.15 K, 2700 kPa	786
388.15 K, 3000 kPa	786.5
388.15 K, 5000 kPa	789.4
388.15 K, 10000 kPa	796.3
388.15 K, 15000 kPa	802.5
388.15 K, 20000 kPa	808.1
388.15 K, 25000 kPa	813.7
388.15 K, 30000 kPa	819.7
388.15 K, 35000 kPa	826.2
393.15 K, 100 kPa	777.2
393.15 K, 1000 kPa	778.7
393.15 K, 2000 kPa	780.3
393.15 K, 2700 kPa	781.4
393.15 K, 3000 kPa	781.9
393.15 K, 5000 kPa	784.9
393.15 K, 10000 kPa	791.9
393.15 K, 15000 kPa	798.4
393.15 K, 20000 kPa	803.9
393.15 K, 25000 kPa	809.7
393.15 K, 30000 kPa	815.7
393.15 K, 35000 kPa	822.2
